From patent US9242996B2 (Novartis AG, priority 2013, dated 2016)
pIC50: −log10 of the molar value.

Biological target: activated ERK2 (Homo sapiens (Human), UniProt P28482)
Assay: Activated ERK2 kinase assay, ERK2 New conditions (AlphaScreen, ERKtide phosphorylation)
Type: biochemical
Conditions: 0.25 nM ERK2, 200 nM ERKtide peptide, 35 μM ATP, 30 min preincubation
Outline: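 0.25 nM ERK2 preincubated 30 min with compound, then reacted 2–3 h at ambient temperature with 200 nM ERKtide and 35 µM ATP (final) in HEPES pH 7.5 buffer. EDTA stop; phospho-peptide detected by AlphaScreen after overnight incubation; IC50 from four-parameter fit.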

activated ERK2, sequence (P28482 whole entry): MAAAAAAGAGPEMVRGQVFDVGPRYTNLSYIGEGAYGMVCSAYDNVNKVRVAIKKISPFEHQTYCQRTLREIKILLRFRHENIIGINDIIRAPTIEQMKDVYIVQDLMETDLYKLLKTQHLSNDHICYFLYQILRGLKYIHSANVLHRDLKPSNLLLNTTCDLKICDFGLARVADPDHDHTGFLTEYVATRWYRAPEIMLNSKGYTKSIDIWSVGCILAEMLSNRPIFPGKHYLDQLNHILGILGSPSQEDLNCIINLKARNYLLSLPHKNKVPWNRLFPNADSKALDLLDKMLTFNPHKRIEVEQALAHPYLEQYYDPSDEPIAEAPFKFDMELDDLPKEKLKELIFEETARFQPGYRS

Row | Structure (SMILES) | pIC50
1 | Nc1ncc(C2CCOCC2)cc1-c1ccc(C(=O)N[C@@H]2CCCN(Cc3ccccc3F)C2)c(F)c1 [Example 113, (R)-4-(2-amino-5-(tetrahydro-2H-pyran-4-yl)pyridin-3-yl)-2-fluoro-N-(1-(2-fluorobenzyl)piperidin-3-yl)benzamide] | 6.11
2 | Nc1ncc(CCO)nc1-c1ccc(C(=O)N[C@H](CO)c2ccccc2)c(F)c1 [Example 111, (S)-4-(3-amino-6-(2-hydroxyethyl)pyrazin-2-yl)-2-fluoro-N-(2-hydroxy-1-phenylethyl)benzamide] | 7.51
3 | C[C@@H](NC(=O)c1ccc(-c2cc(C3CC3)cnc2N)cc1F)c1cc(F)cc(S(C)(=O)=O)c1 [Example 288, (R)-4-(2-amino-5-cyclo-propylpyridin-3-yl)-2-fluoro-N-(1-(3-fluoro-5-(methylsulfonyl)phenyl)ethyl) benzamide] | 8.69
4 | Nc1ncc([C@H]2C[C@H]3COC(=O)N3C2)cc1-c1ccc(C(=O)N[C@H](CO)c2cccc(Cl)c2)c(F)c1 [Example 9, 4-(2-amino-5-((6R,7aS)-3-oxohexahydropyrrolo[1,2-c]oxazol-6-yl)pyridin-3-yl)-N—((S)-1-(3-chlorophenyl)-2-hydroxyethyl)-2-fluorobenzamide] | 8.45
5 | CS(=O)(=O)N1CCCC(c2cnc(N)c(-c3ccc(C(=O)N[C@H](CO)c4ccccc4)c(F)c3)n2)C1 (stereo partly drawn) [Example 213, 4-(3-amino-6-(1-(methylsulfonyl)piperidin-3-yl)pyrazin-2-yl)-2-fluoro-N—((S)-2-hydroxy-1-phenylethyl)benzamide] | 7.92
6 | C[C@@H](NC(=O)c1ccc(-c2nc([C@H]3CC[C@@H](O)CC3)cnc2N)cc1F)c1cc(F)cc(S(C)(=O)=O)c1 [Example 420, 4-(3-amino-6-((1s,4S)-4-hydroxy-cyclohexyl)pyrazin-2-yl)-2-fluoro-N-((R)-1-(3-fluoro-5-(methylsulfonyl)phenyl)ethyl) benzamide] | 8.71
7 | COC1CCCC(c2cnc(N)c(-c3ccc(C(=O)N[C@H](CO)c4cccc(Cl)c4)c(F)c3)n2)C1 (mixture of isomers) [Example 123, cis-4-(3-amino-6-(3-methoxycyclohexyl)pyrazin-2-yl)-N-((S)-1-(3-chlorophenyl)-2-hydroxyethyl)-2-fluorobenzamide] | 9.23
8 | COC(=O)N1CCC(c2cnc(N)c(-c3ccc(C(=O)N[C@H](CO)c4cccc(Cl)c4)c(F)c3)n2)CC1 [Example 59, (S)-methyl 4-(5-amino-6-(4-((1-(3-chlorophenyl)-2-hydroxyethyl)carbamoyl)-3-fluorophenyl)pyrazin-2-yl)piperidine-1-carboxylate] | 9.46
9 | Nc1ncc(C2CCC(=O)NC2)nc1-c1ccc(C(=O)NCc2ccccc2)c(F)c1 (racemic) [Example 117, (+/−)-4-(3-amino-6-(6-oxopiperidin-3-yl)pyrazin-2-yl)-N-benzyl-2-fluorobenzamide] | 8.32
10 | CS(=O)(=O)c1cc(F)cc(CNC(=O)c2ccc(-c3nc(C4CC4)cnc3N)cc2F)c1 [Example 286, 4-(3-amino-6-cyclo-propylpyrazin-2-yl)-2-fluoro-N-(3-fluoro-5-(methylsulfonyl)benzyl)benzamide] | 8.41
11 | Nc1ncc(C2CC2)nc1-c1ccc(C(=O)N[C@H](CO)c2ccccc2)c(F)c1 [Example 251, (S)-4-(3-amino-6-cyclo-propylpyrazin-2-yl)-2-fluoro-N-(2-hydroxy-1-phenylethyl) benzamide] | 8.15
12 | CN(Cc1ncccn1)C(=O)c1ccc(-c2cc(C3CCOCC3)cnc2N)cc1F [Example 3, 4-(2-amino-5-(tetrahydro-2H-pyran-4-yl)pyridin-3-yl)-2-fluoro-N-methyl-N-(pyrimidin-2-ylmethyl)benzamide] | 4.91
13 | Nc1ncc(C2CCOCC2)nc1-c1ccc(C(=O)N[C@H]2CCCN(Cc3ccccc3F)C2)c(F)c1 [Example 125, (S)-4-(3-amino-6-(tetrahydro-2H-pyran-4-yl)pyrazin-2-yl)-2-fluoro-N-(1-(2-fluorobenzyl)piperidin-3-yl)benzamide] | 5.65
14 | CS(=O)(=O)[C@@H]1CCC[C@@H](c2cnc(N)c(-c3ccc(C(=O)NCc4ccccc4)c(F)c3)n2)C1 (racemic) [Example 13, (+/−)-4-(3-amino-6-((1R,3R)-3-(methylsulfonyl)cyclohexyl)pyrazin-2-yl)-N-benzyl-2-fluorobenzamide] | 6.44
15 | C[C@@H](NC(=O)c1ccc(-c2nc(C3CCOCC3)cnc2N)cc1F)c1ccccc1 [Example 47, (R)-4-(3-amino-6-(tetrahydro-2H-pyran-4-yl)pyrazin-2-yl)-2-fluoro-N-(1-phenylethyl)benzamide] | 9.09
16 | Nc1ncc(-c2ccnnc2)nc1-c1ccc(C(=O)N[C@H](CO)c2ccccc2)c(F)c1 [Example 144, (S)-4-(3-amino-6-(pyridazin-4-yl)pyrazin-2-yl)-2-fluoro-N-(2-hydroxy-1-phenylethyl)benzamide] | 8.93
17 | Nc1ncc(C2CCS(=O)(=O)CC2)cc1-c1ccc2c(c1)OCCN(Cc1ccccc1)C2=O [Example 110, 8-(2-amino-5-(1,1-dioxidotetrahydro-2H-thiopyran-4-yl)pyridin-3-yl)-4-benzyl-3,4-dihydrobenzo[f][1,4]oxazepin-5(2H)-one] | 6.00
18 | Nc1ncc(C2CCOCC2)nc1-c1ccc(C(=O)N2CCOC[C@@H]2c2ccccc2)cc1 [Example 322, (S)-(4-(3-amino-6-(tetrahydro-2H-pyran-4-yl)pyrazin-2-yl)phenyl)(3-phenylmorpholino) methanone] | 7.04
19 | CNC(=O)c1ccc(-c2nc(C3CCOCC3)cnc2N)cc1F [Example 320, 4-(3-amino-6-(tetrahydro-2H-pyran-4-yl)pyrazin-2-yl)-2-fluoro-N-methylbenzamide] | 6.45
20 | CC(CO)c1cnc(N)c(-c2ccc(C(=O)NCc3ccccc3)c(F)c2)n1 (racemic) [Example 115, (+/−)-4-(3-amino-6-(1-hydroxypropan-2-yl)pyrazin-2-yl)-N-benzyl-2-fluorobenzamide] | 6.56
21 | CC1(c2cnc(N)c(-c3ccc(C(=O)N[C@H](CO)c4ccccc4)c(F)c3)c2)CCOCC1 [Example 45, (S)-4-(2-Amino-5-(4-methyltetrahydro-2H-pyran-4-yl)pyridin-3-yl)-2-fluoro-N-(2-hydroxy-1-phenylethyl)benzamide] | 8.44
22 | Nc1nccnc1-c1ccc(C(=O)NCc2ccccc2)cc1 [Example 46, 4-(3-aminopyrazin-2-yl)-N-benzylbenzamide] | 5.32
23 | Nc1ncc(C2CCC3(CC2)OCCO3)nc1-c1ccc(C(=O)NCc2ccccc2)c(F)c1 [Example 413, 4-(3-amino-6-(1,4-dioxaspiro[4.5]decan-8-yl)pyrazin-2-yl)-N-benzyl-2-fluorobenzamide] | 6.69

The next lines start with the values.

Row | pIC50 | Structure (SMILES)
24 | 8.97 | Cc1cc(-c2cc(-c3cnn(C)c3)cnc2N)ccc1C(=O)N[C@H](CO)c1ccccc1 [Example 269, (S)-4-(2-amino-5-(1-methyl-1H-pyrazol-4-yl)pyridin-3-yl)-N-(2-hydroxy-1-phenylethyl)-2-methylbenzamide]
25 | 8.55 | CC(C)n1cc(-c2cnc(N)c(-c3ccc(C(=O)N[C@H](CO)c4cccc(F)c4)c(F)c3)c2)cn1 [Example 292, (S)-4-(2-amino-5-(1-isopropyl-1H-pyrazol-4-yl)pyridin-3-yl)-2-fluoro-N-(1-(3-fluorophenyl)-2-hydroxyethyl) benzamide]
26 | 8.97 | CCn1cc(-c2cnc(N)c(-c3ccc(C(=O)N[C@H](CO)c4cccc(S(C)(=O)=O)c4)c(F)c3)c2)cn1 [Example 296, (S)-4-(2-amino-5-(1-ethyl-1H-pyrazol-4-yl)pyridin-3-yl)-2-fluoro-N-(2-hydroxy-1-(3-(methylsulfonyl)phenyl)ethyl) benzamide]
27 | 6.69 | N#CCc1cnc(N)c(-c2ccc(C(=O)N[C@H](CO)c3ccccc3)c(F)c2)c1 [Example 134, (S)-4-(2-amino-5-(cyanomethyl)pyridin-3-yl)-2-fluoro-N-(2-hydroxy-1-phenylethyl)benzamide]
28 | 6.45 | Cn1cc(-c2cnc(N)c(-c3ccc(C(=O)NCc4nccs4)c(F)c3)c2)cn1 [Example 238, 4-(2-amino-5-(1-methyl-1H-pyrazol-4-yl)pyridin-3-yl)-2-fluoro-N-(thiazol-2-ylmethyl) benzamide]
29 | 8.92 | Cc1nn(C)cc1-c1cnc(N)c(-c2ccc(C(=O)N[C@H](CO)c3cccc(F)c3)c(F)c2)c1 [Example 282, (S)-4-(2-amino-5-(1,3-dimethyl-1H-pyrazol-4-yl)pyridin-3-yl)-2-fluoro-N-(1-(3-fluorophenyl)-2-hydroxyethyl) benzamide]
30 | 8.24 | Cc1ncc(-c2cnc(N)c(-c3ccc(C(=O)N[C@H](CO)c4ccccc4)c(F)c3)c2)n1C [Example 161, (S)-4-(2-amino-5-(1,2-dimethyl-1H-imidazol-5-yl)pyridin-3-yl)-2-fluoro-N-(2-hydroxy-1-phenylethyl)benzamide]
31 | 9.00 | Cn1cnnc1-c1cnc(N)c(-c2ccc(C(=O)N[C@H](CO)c3cccc(Cl)c3)c(F)c2)c1 [Example 167, (S)-4-(2-amino-5-(4-methyl-4H-1,2,4-triazol-3-yl)pyridin-3-yl)-N-(1-(3-chlorophenyl)-2-hydroxyethyl)-2-fluorobenzamide]
32 | 8.83 | Cn1cncc1-c1cnc(N)c(-c2ccc(C(=O)N[C@H](CO)c3cccc(F)c3)c(F)c2)c1 [Example 234, (S)-4-(2-amino-5-(1-methyl-1H-imidazol-5-yl)pyridin-3-yl)-2-fluoro-N-(1-(3-fluorophenyl)-2-hydroxyethyl) benzamide]
33 | 8.80 | CN1C[C@@H](c2cnc(N)c(-c3ccc(C(=O)N[C@H](CO)c4cccc(Cl)c4)c(F)c3)c2)CCC1=O [Example 36, 4-(2-amino-5-((R)-1-methyl-6-oxopiperidin-3-yl)pyridin-3-yl)-N—((S)-1-(3-chlorophenyl)-2-hydroxyethyl)-2-fluorobenzamide]
34 | 5.58 | Cn1cc(CNC(=O)c2ccc(-c3cc(-c4cnn(C)c4)cnc3N)cc2F)cn1 [Example 237, 4-(2-amino-5-(1-methyl-1H-pyrazol-4-yl)pyridin-3-yl)-2-fluoro-N-((1-methyl-1H-pyrazol-4-yl)methyl) benzamide]
